Experimental data reported in the NIST ThermoML archive (doi:10.1016/j.jct.2014.01.020).
± gives the expanded uncertainty stated by the source.

Tests used:
[1] = molar heat capacity at constant pressure; settings: Liquid, Flow calorimetry
[2] = Liquid; for mass density: Vibrating tube method; for viscosity: 101 kPa, Concentric cylinders viscometry

What does the source list for `C1CCCCC1` [cyclohexane]?
molar heat capacity at constant pressure ([1]; 293.15 K, 100 kPa): 154.7 ± 1.6 J/K/mol; molar heat capacity at constant pressure ([1]; 293.15 K, 5000 kPa): 153.8 ± 1.6 J/K/mol; molar heat capacity at constant pressure ([1]; 293.15 K, 10000 kPa): 152.5 ± 1.5 J/K/mol; molar heat capacity at constant pressure ([1]; 293.15 K, 15000 kPa): 150.5 ± 1.5 J/K/mol; molar heat capacity at constant pressure ([1]; 293.15 K, 20000 kPa): 149.7 ± 1.5 J/K/mol; molar heat capacity at constant pressure ([1]; 293.15 K, 25000 kPa): 147.7 ± 1.5 J/K/mol; molar heat capacity at constant pressure ([1]; 313.15 K, 25000 kPa): 154.6 ± 1.6 J/K/mol; mass density ([2]; 293.15 K, 100 kPa): 778.4 ± 0.7 kg/m3; viscosity ([2]; 293.15 K): 0.98 ± 0.021 mPa·s; mass density ([2]; 293.15 K, 1000 kPa): 779.1 ± 0.7 kg/m3; mass density ([2]; 293.15 K, 2000 kPa): 779.9 ± 0.7 kg/m3; mass density ([2]; 293.15 K, 5000 kPa): 782.4 ± 0.7 kg/m3; mass density ([2]; 293.15 K, 10000 kPa): 786.3 ± 0.7 kg/m3; mass density ([2]; 293.15 K, 15000 kPa): 789.9 ± 0.7 kg/m3; mass density ([2]; 293.15 K, 20000 kPa): 793.4 ± 0.7 kg/m3; mass density ([2]; 303.15 K, 100 kPa): 769 ± 0.7 kg/m3; viscosity ([2]; 303.15 K): 0.824 ± 0.018 mPa·s; mass density ([2]; 303.15 K, 1000 kPa): 769.8 ± 0.7 kg/m3; mass density ([2]; 303.15 K, 2000 kPa): 770.7 ± 0.7 kg/m3; mass density ([2]; 303.15 K, 5000 kPa): 773.3 ± 0.7 kg/m3; mass density ([2]; 303.15 K, 10000 kPa): 777.5 ± 0.7 kg/m3; mass density ([2]; 303.15 K, 15000 kPa): 781.3 ± 0.7 kg/m3; mass density ([2]; 303.15 K, 20000 kPa): 785.1 ± 0.8 kg/m3; mass density ([2]; 303.15 K, 30000 kPa): 792.1 ± 0.8 kg/m3; mass density ([2]; 303.15 K, 40000 kPa): 798.5 ± 0.8 kg/m3; mass density ([2]; 313.15 K, 100 kPa): 759.7 ± 0.7 kg/m3; viscosity ([2]; 313.15 K): 0.701 ± 0.015 mPa·s; mass density ([2]; 313.15 K, 1000 kPa): 760.3 ± 0.7 kg/m3; mass density ([2]; 313.15 K, 2000 kPa): 761.2 ± 0.7 kg/m3; mass density ([2]; 313.15 K, 5000 kPa): 764 ± 0.7 kg/m3; mass density ([2]; 313.15 K, 10000 kPa): 768.4 ± 0.7 kg/m3; mass density ([2]; 313.15 K, 15000 kPa): 772.6 ± 0.7 kg/m3; mass density ([2]; 313.15 K, 20000 kPa): 776.6 ± 0.8 kg/m3; mass density ([2]; 313.15 K, 30000 kPa): 784.1 ± 0.8 kg/m3; mass density ([2]; 313.15 K, 40000 kPa): 790.9 ± 0.8 kg/m3; mass density ([2]; 323.15 K, 100 kPa): 750.1 ± 0.7 kg/m3; viscosity ([2]; 323.15 K): 0.593 ± 0.013 mPa·s; mass density ([2]; 323.15 K, 1000 kPa): 750.8 ± 0.7 kg/m3; mass density ([2]; 323.15 K, 2000 kPa): 751.8 ± 0.7 kg/m3; mass density ([2]; 323.15 K, 5000 kPa): 754.8 ± 0.7 kg/m3; mass density ([2]; 323.15 K, 10000 kPa): 759.5 ± 0.7 kg/m3; mass density ([2]; 323.15 K, 15000 kPa): 763.9 ± 0.7 kg/m3; mass density ([2]; 323.15 K, 20000 kPa): 768.2 ± 0.8 kg/m3; mass density ([2]; 323.15 K, 30000 kPa): 776.1 ± 0.8 kg/m3; mass density ([2]; 323.15 K, 40000 kPa): 783.2 ± 0.8 kg/m3; mass density ([2]; 333.15 K, 100 kPa): 740.3 ± 0.7 kg/m3; viscosity ([2]; 333.15 K): 0.522 ± 0.012 mPa·s; mass density ([2]; 333.15 K, 1000 kPa): 741.1 ± 0.7 kg/m3; mass density ([2]; 333.15 K, 2000 kPa): 742.2 ± 0.7 kg/m3; mass density ([2]; 333.15 K, 5000 kPa): 745.5 ± 0.7 kg/m3; mass density ([2]; 333.15 K, 10000 kPa): 750.5 ± 0.7 kg/m3; mass density ([2]; 333.15 K, 15000 kPa): 755.3 ± 0.7 kg/m3; mass density ([2]; 333.15 K, 20000 kPa): 759.7 ± 0.8 kg/m3; mass density ([2]; 333.15 K, 30000 kPa): 768.1 ± 0.8 kg/m3; mass density ([2]; 333.15 K, 40000 kPa): 775.6 ± 0.8 kg/m3
